In US20250255981A1, “IMMUNOMODULATORY ANTIBODY-DRUG CONJUGATES” (Seagen Inc., priority 2022, published 2025):
In brackets after ≈: the same amount, converted by molar mass.

System: THP1-Dual™ cells (IRF-Lucia luciferase reporter)
Assay: THP1-Dual™ cell reporter assay
Type: cell-based, human
Settings: ADC: drug linker conjugated to targeted mAb, 48 h; some values average of multiple experiments
Method: Potency of compounds and ADCs was evaluated using the THP1-Dual™ cells (Invivogen PN: thpd-nfis [also referred to as THP1 dual reporter cells]), which contain an IRF-Lucia luciferase reporter. Cells were cultured in RPMI-1640 (Gibco) with 10% heat-inactivated fetal bovine serum, Pen-Strep (100 U/mL-100 […], Gibco), HEPES (10 mM, Gibco)), sodium pyruvate (1 mM, Gibco), MEM non-essential amino acids (1×, Gibco), GlutaMAX (1×, Gibco), and beta-mercaptoethanol (55 μM, Gibco). Cells were plated in a 96-well flat bottom tissue culture-treated clear polystyrene plate (Corning Costar #3596) at ˜100,000 cells per well in 200 μL with the indicated concentration of the compound or ADC. The supernatant was harvested at 24 hours (compounds) or 48 hours (ADC) post plating for the reporter assay, or as indicated. To measure Lucia reporter signal, 10 µL of the supernatant was combined with 40 µL of QUANTI-Luc™ Luminescence assay reagent (Invivogen PN: rep-qlc1) in a 96-well clear flat bottom tissue culture-treated black polystyrene plate (Corning Costar #3603) and read on a Perkin Elmer Envision plate reader.

Row | Structure (SMILES) | EC50, Lucia reporter signal
1 | CCc1oc(C)cc1C(=O)Nc1nc2cc(C(N)=O)cc(OCCCN(C)C(=O)CCN3C(=O)C=CC3=O)c2n1C/C=C/Cn1c(NC(=O)c2cc(C)nn2CC)nc2cc(C(N)=O)cc(OC)c21 [compound 106] | >10,000 ng/mL
2 | CCn1nc(C)cc1C(=O)Nc1nc2cc(C(N)=O)cc(OC)c2n1C/C=C/Cn1c(NC(=O)c2cc(C)sn2)nc2cc(C(N)=O)cc(OCCCN(C)C(=O)CCN3C(=O)C=CC3=O)c21 [compound 107] | >10,000 ng/mL
3 | CCn1nc(C)cc1C(=O)Nc1nc2cc(C(N)=O)cc(OC)c2n1C/C=C/Cn1c(NC(=O)c2ccnn2CC)nc2cc(C(N)=O)cc(OCCCN(C)C(=O)CCN3C(=O)C=CC3=O)c21 [compound 108] | 63.5 ng/mL (≈ 68.2 nM)
4 | CCn1nc(C)cc1C(=O)Nc1nc2cc(C(N)=O)cc(OC)c2n1C/C=C/Cn1c(NC(=O)c2cc(C(F)(F)F)nn2CC)nc2cc(C(N)=O)cc(OCCCN(C)C(=O)CCN3C(=O)C=CC3=O)c21 [compound 109] | >10,000 ng/mL
5 | CCn1nc(C)cc1C(=O)Nc1nc2cc(C(N)=O)cc(OC)c2n1C/C=C/Cn1c(NC(=O)c2c(C)cnn2C)nc2cc(C(N)=O)cc(OCCCN(C)C(=O)CCN3C(=O)C=CC3=O)c21 [compound 110] | >10,000 ng/mL
6 | CCc1nc(C)sc1C(=O)Nc1nc2cc(C(N)=O)cc(OCCCN(C)C(=O)CCN3C(=O)C=CC3=O)c2n1C/C=C/Cn1c(NC(=O)c2cc(C)nn2CC)nc2cc(C(N)=O)cc(OC)c21 [compound 111] | 13.2 ng/mL (≈ 13.7 nM)
7 | CCc1nc(C)oc1C(=O)Nc1nc2cc(C(N)=O)cc(OCCCN(C)C(=O)CCN3C(=O)C=CC3=O)c2n1C/C=C/Cn1c(NC(=O)c2cc(C)nn2CC)nc2cc(C(N)=O)cc(OC)c21 [compound 112] | 2 ng/mL (≈ 2.11 nM)
8 | CCn1nc(C)cc1C(=O)Nc1nc2cc(C(N)=O)cc(OC)c2n1C/C=C/Cn1c(NC(=O)c2cc(C)nn2CC)nc2cc(C(N)=O)cc(OCCCN(C)C(=O)[C@H](CC(C)C)NC(=O)CCN3C(=O)C=CC3=O)c21 [compound 121] | 3.0 ng/mL (≈ 2.84 nM)
9 | CCn1nc(C)cc1C(=O)Nc1nc2cc(C(N)=O)cc(OC)c2n1C/C=C/Cn1c(NC(=O)c2cc(C)nn2CC)nc2cc(C(N)=O)cc(OCCCN(C)C(=O)[C@H](Cc3ccccc3)NC(=O)CCN3C(=O)C=CC3=O)c21 [compound 122] | 5.6 ng/mL (≈ 5.13 nM)
10 | CCn1nc(C)cc1C(=O)Nc1nc2cc(C(N)=O)cc(OC)c2n1C/C=C/Cn1c(NC(=O)c2cc(C)nn2CC)nc2cc(C(N)=O)cc(OCCCN(C)C(=O)[C@H](CCC(=O)OC)NC(=O)CCN3C(=O)C=CC3=O)c21 [compound 123] | 1.6 ng/mL (≈ 1.47 nM)
11 | CCn1nc(C)cc1C(=O)Nc1nc2cc(C(N)=O)cc(OC)c2n1C/C=C/Cn1c(NC(=O)c2cc(C)nn2CC)nc2cc(C(N)=O)cc(OCCCN(C)C(=O)[C@H](Cc3ccc(OC)cc3)NC(=O)CCN3C(=O)C=CC3=O)c21 [compound 124] | 9.1 ng/mL (≈ 8.11 nM)
12 | CCn1nc(C)cc1C(=O)Nc1nc2cc(C(N)=O)cc(OC)c2n1C/C=C/Cn1c(NC(=O)c2cc(C)nn2CC)nc2cc(C(N)=O)cc(OCCCN(C)C(=O)[C@@H](NC(=O)CCN3C(=O)C=CC3=O)[C@@H](C)OC)c21 [compound 125] | 1.4 ng/mL (≈ 1.32 nM)
13 | CCn1nc(C)cc1C(=O)Nc1nc2cc(C(=O)O)cc(OC)c2n1C/C=C/Cn1c(NC(=O)c2cc(C)nn2CC)nc2cc(C(N)=O)cc(OCCCN(C)C(=O)CCN3C(=O)C=CC3=O)c21 [compound 126, (E)-1-(4-(5-carbamoyl-7-(3-(3-(2,5-dioxo-2,5-dihydro-1H-pyrrol-1-yl)-N-methylpropanamido)propoxy)-2-(1-ethyl-3-methyl-1H-pyrazole-5-carboxamido)-1H-benzo[d]imidazol-1-yl)but-2-en-1-yl)-2-(1-ethyl-3-methyl-1H-pyrazole-5-carboxamido)-7-methoxy-1H-benzo[d]imidazole-5-carboxylic acid] | >10,000 ng/mL
